EP4624465A1, “COMPOUND SERVING AS DDR1 KINASE INHIBITOR, AND MEDICINE” (Nippon Shinyaku Co., Ltd., priority 2022, dated 2024)
Structures can show the parent of a compound that is named as a salt.

Biological target: DDR1 kinase (Homo sapiens, UniProt Q08345)
Test: Evaluation of DDR1 kinase inhibition (LANCE Ultra TR-FRET kinase assay)
Type: biochemical
Design: purchased Carna Biosciences 08-113
Conditions: DDR1 protein 0.5 nM, LANCE Ultra ULight-poly GAT substrate, 2 hours at room temperature, duplicate; read-out: DDR-1 IC50

Sequence of DDR1 kinase (Q08345 19-876 isoform Q08345-2 limits assumed): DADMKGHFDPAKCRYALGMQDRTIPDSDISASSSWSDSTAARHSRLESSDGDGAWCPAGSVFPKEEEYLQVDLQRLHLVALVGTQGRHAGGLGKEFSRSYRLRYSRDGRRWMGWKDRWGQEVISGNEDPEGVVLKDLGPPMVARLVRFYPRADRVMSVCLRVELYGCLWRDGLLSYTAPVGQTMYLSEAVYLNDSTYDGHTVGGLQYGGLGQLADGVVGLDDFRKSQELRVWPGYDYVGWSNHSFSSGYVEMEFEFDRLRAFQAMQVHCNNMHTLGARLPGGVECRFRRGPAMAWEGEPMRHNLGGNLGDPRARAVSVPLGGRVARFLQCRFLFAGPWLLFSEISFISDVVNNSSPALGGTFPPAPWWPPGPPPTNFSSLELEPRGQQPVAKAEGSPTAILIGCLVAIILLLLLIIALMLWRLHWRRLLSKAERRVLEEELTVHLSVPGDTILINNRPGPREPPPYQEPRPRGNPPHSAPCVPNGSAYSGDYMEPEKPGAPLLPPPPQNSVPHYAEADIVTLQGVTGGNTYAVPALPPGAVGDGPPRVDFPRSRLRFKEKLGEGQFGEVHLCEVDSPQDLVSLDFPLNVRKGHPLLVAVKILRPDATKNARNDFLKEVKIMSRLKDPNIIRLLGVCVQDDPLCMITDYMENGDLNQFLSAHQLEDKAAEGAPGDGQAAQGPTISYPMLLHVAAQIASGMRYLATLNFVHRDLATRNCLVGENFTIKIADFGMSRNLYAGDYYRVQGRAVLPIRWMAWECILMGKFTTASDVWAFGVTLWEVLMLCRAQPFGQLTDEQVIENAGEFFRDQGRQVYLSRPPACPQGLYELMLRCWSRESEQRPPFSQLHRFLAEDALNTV

## Nc1cc(C(=O)N2CC(c3nn(Cc4cn(CC(F)(F)F)nn4)c4cccc(F)c34)C2)ccn1 [Compound E-52, 4-[3-(1-{[1-(2,2,2-trifluoroethyl)-1H-1,2,3-triazol-4-yl]methyl]-4-fluoro-1H-indazol-3-yl)azetidine-1-carbonyl]pyridin-2-amine hydrochloride]
  IC50: 43 nM

## CC(C)(C)OC(=O)Cn1nc(C2CN(C(=O)c3cc(N)ncc3F)C2)c2ccccc21 [Compound E-220, tert-butyl 2-{3-[1-(2-amino-5-fluoropyridine-4-carbony)azetidin-3-yl]-1H-indazol-1-yl}acetate]
  IC50: 3.6 nM

## Nc1cc(C(=O)N2CC(c3nn(CC(=O)NCCOC(F)(F)F)c4ccccc34)C2)ccn1 [Compound E-227, 2-{3-[1-(2-aminopyridine-4-carbonyl)azetidin-3-yl)-1H-indazol-1-yl}-N-[2-(trifluoromethoxy)ethyl]acetamide]
  IC50: 60 nM

## Nc1cc(C(=O)N2CC(c3nn(CC(=O)N4CCC[C@@H]4C(F)(F)F)c4ccccc34)C2)c(F)cn1 [Compound E-60, 2-{3-[1-(2-amino-5-fluoropyridine-4-carbonyl)azetidin-3-yl]-1H-indazol-1-yl}-1-[(2R)-2-(trifluoromethyl)pyrrolidin-1-yl]ethan-1-one]
  IC50: 6.5 nM

## Nc1cc(C(=O)N2CC(c3nn(CC4CN(c5ccccc5)C4)c4cc(F)cc(F)c34)C2)ccn1 [Compound E-157, 4-(3-{4,6-difluoro-1-[(1-phenylazetidin-3-yl)methyl)-1H-indazol-3-yl}azetidine-1-carbonyl)pyridin-2-amine]
  IC50: 350 nM

## Nc1cc(C(=O)N2CC(c3nn(CC4Cc5ccccc5C4)c4cc(F)cc(F)c34)C2)ccn1 [Compound E-171, 4-(3-{1-[(2,3-dihydro-1H-inden-2-yl)methyl]-4,6-difluoro-1H-indazol-3-yl}azetidine-1-carbonyl)pyridin-2-amine]
  IC50: 34 nM

## CC1(c2nn(CC(=O)N3CCC[C@H]3C(F)(F)F)c3ccccc23)CN(C(=O)c2ccnc(N)c2)C1 [Compound E-6, 2-{3-[1-(2-aminopyridine-4-carbonyl)-3-methylazetidin-3-yl]-1H-indazol-1-yl}-1-[(2S)-2-(trifluoromethyl)pyrrolidin-1-yl]ethan-1-one]
  IC50: 7.1 nM

## Nc1cc(C(=O)N2CC(c3nn(CC(=O)N4CCOc5ccccc54)c4cc(F)cc(F)c34)C2)ccn1 [Compound E-159, 2-{3-{1-(2-aminopyridine-4-carbonyl)azetidin-3-yl]-4,6-difluoro-1H-indazol-1-yl]-1-(3,4-dihydro-2H-1,4-benzoxazin-4-yl)ethan-1-one]
  IC50: 1.2 nM

## Nc1nccc(C(=O)N2CC(c3nn(CC(=O)N4CCC[C@H]4C(F)(F)F)c4ccc(Cl)cc34)C2)n1 [Compound E-290, 2-{3-[1-(2-aminopyrimidine-4-carbonyl)azetidin-3-yl]-5-chloro-1H-indazol-1-yl}-1-[(28)-2-(trifluoromethyl)pyrrolidin-1-yl]ethan-1-one]
  IC50: 1.6 nM

## Nc1cc(C(=O)N2CC(c3nn(CC(=O)N4CC5CCC(C4)O5)c4ccccc34)C2)c(F)cn1 [Compound E-258, 2-{3-[1-(2-amino-5-fluoropyridine-4-carbonyl)azetidin-3-yl]-1H-indazol-1-yll-1-18-oxa-3-azabicyclo[3.2.1}octan-3-yl]ethan-1-one]
  IC50: 74 nM

## Nc1cc(C(=O)N2CC(c3nn(CC(=O)N4CCC[C@H]4C(F)(F)F)c4cc(F)c(F)cc34)C2)c(F)cn1 [Compound E-280]
  IC50: 0.9 nM

## Nc1nccc(C(=O)N2CC(c3nn(CC(=O)N4CCC[C@H]4C(F)(F)F)c4cc(F)ccc34)C2)n1 [Compound E-286, 2-{3-[1-(2-aminopyrimidine-4-carbonyl)azetidin-3-yl]-6-fluoro-1H-indazol-1-yl}-1-[(2S)-2-(trifluoromethyl)pyrrolidin-1-yl]ethan-1-one]
  IC50: 5 nM

## Nc1cc(C(=O)N2CC(c3nn(CC(=O)N4CCC[C@H]4C(F)(F)F)c4c3CC(F)(F)CC4)C2)c(F)cn1 [Compound E-25]
  IC50: 9 nM

## Nc1cc(C(=O)N2CC(c3nn(CC(=O)N4CCC[C@H]4C(F)(F)F)c4ccc(F)c(Cl)c34)C2)ccn1 [Compound E-144, 2-{3-[1-(2-aminopyridine-4-carbonyl)azetidin-3-yl]-4-chloro-5-fluoro-1H-indazol-1-yl}-1-[(2S)-2-(trifluoromethyl)pyrrolidin-1-yl]ethan-1-one]
  IC50: 1.4 nM

## CO[C@H]1CCN(C(=O)Cn2nc(C3CN(C(=O)c4cc(N)ncc4F)C3)c3ccccc32)C1 [Compound E-230, 2-{3-[1-(2-amino-5-fluoropyridine-4-carbonyl)azetidin-3-yl]-1H-indaaol-1-yl}-1-[(3S)-3-methoxypyrrolidin-1-yl]ethan-1-one]
  IC50: 54 nM

## Nc1cc(C(=O)N2CC(c3nn(Cc4nc(-c5ccncc5F)no4)c4cncc(F)c34)C2)ccn1 [Compound E-170]
  IC50: 220 nM

## CN(C(=O)Cn1nc(C2CN(C(=O)c3cc(N)ncc3F)C2)c2ccccc21)C(C)(C)C [Compound E-268, 2-{3-[1-(2-amino-5-fluoropyridine-4-carbonyl)azetidin-3-yl]-1H-indazol-1-yl}-N-tert-butyl-N-methylacetamide]
  IC50: 3.9 nM

## CC(C)(NC(=O)Cn1nc(C2CN(C(=O)c3ccnc(N)c3)C2)c2ccccc21)C1CC1 [Compound E-234, 2-{3-[1-(2-aminopyridine-4-carbonyl)azetidin-3-yl]-1H-indazol-1-yl}-N-(2-cyclopropylpropan-2-yl)acetamide]
  IC50: 7.9 nM

## O=C(c1ccncc1F)N1CC(c2nn(CC(=O)N3CCC[C@H]3C(F)(F)F)c3cc(F)cc(F)c23)C1 [Compound E-142, 2-{4,6-difluoro-3-[1-(3-fluoropyridine-4-carbonyl)azetidin-3-yl]-1H-indazol-1-yl]-1-[(2S)-2-(trifluoromethyl)pyrrolidin-1-yl]ethan-1-one]
  IC50: 7.9 nM

## Nc1cc(C(=O)N2CC(c3nn(CC(=O)N4CCCc5ccccc54)c4cc(F)cc(F)c34)C2)ccn1 [Compound E-158, 2-{3-[1-(2-aminopyridine-4-carbonyl)azetidin-3-yl]-4,6-difluoro-1H-indazol-1-yl}-1-(1,2,3,4-tetrahydroquinolin-1-yl)ethan-1-one]
  IC50: 0.6 nM

## C[C@H]1COC[C@H](C)N1C(=O)Cn1nc(C2CN(C(=O)c3cc(N)ncc3F)C2)c2c(F)cc(F)cc21 [Compound E-182, 2-{3-[1-(2-amino-5-fluoropyridine-4-carbonyl)azetidin-3-yl]-4,6-difluoro-1H-indazol-1-yl}-1-[(3S,5S)-3,5-dimethylmorpholin-4-yl]ethan-1-one]
  IC50: 12 nM

## Nc1cc(C(=O)N2CC(c3nn(Cc4nnc(-c5ccc(F)cc5)o4)c4cccc(F)c34)C2)ccn1 [Compound E-20, 4-[3-(4-fluoro-1-{[5-(4-fluorophenyl)-1,3,4-oxadiazol-2-yl]methyl}-1H-indazol-3-yl)azetidine-1-carbonyl]pyridin-2-amine]
  IC50: 84 nM

## Nc1cc(C(=O)N2CC(c3nn(CC(=O)N4CCO[C@@H](C(F)(F)F)C4)c4ccccc34)C2)c(F)cn1 [Compound E-192, 2-{3-[1-(2-amino-5-fluoropyridine-4-carbonyl)azetidin-3-yl]-1H-indazol-1-yl}-1-[(2R)-2-(trifluoromethyl)morpholin-4-yl]ethan-1-one]
  IC50: 1.3 nM

## CN(CCN1CCOCC1)C(=O)Cn1nc(C2CN(C(=O)c3cc(N)ncc3F)C2)c2ccccc21 [Compound E-264]
  IC50: 170 nM

## Nc1cc(C(=O)N2CC(c3nn(CC(=O)N4CCO[C@@H](C(F)(F)F)C4)c4ccccc34)C2)ccn1 [Compound E-193, 2-{3-[1-(2-aminopyridine-4-carbonyl)azetidin-3-yl]-1H-indazol-1-yl}-1-[(2R)-2-(trifluoromethyl)morpholin-4-yl]ethan-1-one]
  IC50: 1.5 nM

## CC(C)(C)NC(=O)Cn1nc(C2CN(C(=O)c3ccnc(N)c3)C2)c2ccccc21 [Compound E-198, 2-{3-[1-(2-aminopyridine-4-carbonyl)azetidin-3-yl]-1H-indazol-1-yl}-N-tert-butylacetamide]
  IC50: 31 nM

## CN(CC(F)(F)F)C(=O)Cn1nc(C2CN(C(=O)c3ccnc(N)n3)C2)c2c(F)cc(F)cc21 [Compound E-289, 2-{3-[1-(2-aminopyrimidine-4-carbonyl)azetidin-3-yl]-4,6-difluoro-1H-indazol-1-yl)-N-methyl-N-(2,2,2-trifluoroethyl)acetamide]
  IC50: 45 nM

## Nc1cc(C(=O)N2CC(c3nn(CC(=O)N4CCC[C@H]4C(F)(F)F)c4cc(F)cc(F)c34)C2)c(F)cn1 [Compound E-155]
  IC50: 2.4 nM

## Nc1cc(C(=O)N2CCC(c3nn(Cc4ccc(C(F)(F)F)cn4)c4cccc(F)c34)CC2)ccn1 [Compound E-9, 4-[4-(4-fluoro-1-{[5-(trifluoromethy)pyridin-2-yl]methyl}-1H-indazol-3-yl)piperidine-1-carbonyl]pyridin-2-amine]
  IC50: 14 nM

## Nc1cc(C(=O)N2CC(c3nn(CC(=O)N4CCC5CC54)c4ccccc34)C2)ccn1 (stereo not drawn) [Compound E-223, 2-{3-[1-(2-aminopyridine-4-carbonyl)azetidin-3-yl]-1H-indazol-1-yl}-1-{2-azabicyclo[3.1.0)hexan-2-yl}ethan-1-one]
  IC50: 82 nM

## CN(CC(F)(F)F)C(=O)Cn1nc(C2CN(C(=O)c3ccnc(N)n3)C2)c2cc(F)ccc21 [Compound E-293, 2-{3-[1-(2-aminopyrimidine-4-carbonyl)azetidin-3-yl]-5-fluoro-1H-indazol-1-yl]-N-methyl-N-(2,2,2-trifluoroethyl)acetamide]
  IC50: 26 nM

## CN(CC(F)(F)F)C(=O)Cn1nc(C2CN(C(=O)c3nc(N)ncc3F)C2)c2cc(F)ccc21 [Compound E-278, 2-{3-[1-(2-amino-5-fluoropyrimidine-4-carbonyl)azetidin-3-yl]-5-fluoro-1H-indazol-1-yl}-N-methyl-N-(2,2,2-trifluoroethyl)acetamide]
  IC50: 6.9 nM

## Cc1cc2c(C3CN(C(=O)c4ccnc(N)c4)C3)nn(Cc3ccc(C(F)(F)F)cc3)c2cn1 [Compound E-168, 4-[3-(5-methyl-1-{[4-(trifluoromethyl)phenyl]methyl]-1H-pyrazolo[3,4-c]pyridin-3-yl)azetidine-1-carbonyl]pyridin-2-amine]
  IC50: 64 nM
